Assay results reported in patent publication US7511119B2, “PRAME peptide analogues” (MannKind Corporation, priority 2005, dated 2009).
Square brackets hold non-standard residues; d marks the D form. Ends that are not written are not given here. Nle = CCCC[C@H](N)C(=O)O; Nva = CCC[C@H](N)C(=O)O

What was measured:
HLA-A*0201 [1] = biological target: T1, HLA-A*0201 (Homo sapiens, UniProt P04439, D140Y/D185E/D98H/E176V/E277Q/G131W/G231S/I119V/I121R/I166T/I218V/L300P/L318F/N151K/N90K/P208A/P217A/Q86G/Q94H/R138H/R169H/T345S); assay: Peptide binding using T2 cells; settings: for Relative affinity (1/RA): half maximal binding of wild-type peptide relative to analog;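 for all read-outs here: Read-out is peptide-induced stabilization of HLA-A*0201 on the cell surface, reflecting mainly Kon at limiting peptide levels and both Kon and Koff at saturating levels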
Text: Thus, at limiting concentrations of peptide, it is a measurement of Kon mostly and at saturation levels of peptide it is a measurement of both Kon and Koff.
Thus, at limiting concentrations of peptide, this is a measurement of Kon mostly and at saturation levels of peptide that is a measurement of both Kon and Koff.

[2] = tested on: T cell lines against natural epitope SSX-241-49; assay: Cross-reactivity and functional avidity: IFN-gamma production by T cell lines raised against natural SSX-2 41-49; type: cell-based, HHD transgenic mice; settings: T cells raised to native peptide tested on analogs; footnote * and unit not given;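 note: analogs presented ex vivo by competent APCs to T cells specific for the non-mutated epitope, scored by lowest activating concentration, peak cytokine effect and concentration at that peak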
624.38 melanoma cells [3] = assay: Ex vivo cytotoxicity against human tumor cells after boost with SSX-2 analogs; type: in vivo; settings: plasmid prime, peptide boost; FIG. 12
Procedure: Eight groups of mice (n=4) were immunized with plasmid expressing SSX-241-49 natural epitope by direct inoculation into the inguinal lymph nodes with 25 ug in 25 ul of PBS/each lymph node at day 0, 3, 14 and 17. This was followed by two additional peptide boosts (similar amount) at day 28 and 31, using a negative control peptide (Melan A 26-35 “EAA”), natural peptide or analogs as shown in FIG. 9.

HLA-A*0201 [4] = biological target: T1, HLA-A*0201; assay: iTopia affinity assay (ED50); type: binding; settings: PRAME425-433 analogs; affinity lower than native
Text: Avidin-coated microtiter plates containing class I monomer loaded with a so-called placeholder peptide were used to evaluate peptide binding, affinity and off-rate. The monomer-coated plates were supplied as part of the iTopia Epitope Discovery System Kit (Beckman Coulter, Inc., San Diego, Calif., USA). Assay buffers, anti-MHC-FITC mAb and beta2-microglobulin and control peptides were also supplied with the kits.
Plates were read on the fluorometer. Sigmoidal dose response curves were generated using Prism software.

[5] = tested on: target cells coated with natural peptide; assay: In vivo cytotoxicity against splenocytes coated with natural SSX-2 41-49 peptide (CFSE); parameters: species or system HHD mice; settings: spleen and blood; targets coated with 20 μg/ml and 1 μg/ml natural peptide
Procedure: Eight groups of mice (n=4) were immunized with plasmid expressing SSX-241-49 natural epitope, by direct inoculation into the inguinal lymph nodes with 25 μg in 25 μl of PBS/each lymph node at day 0, 3, 14 and 17. This was followed by two additional peptide boosts (similar amount) at day 28 and 31, using a negative control peptide (Melan A 26-35 “EAA”), natural peptide or analogs as shown in FIG. 9.
To evaluate the in vivo response against natural peptide, splenocytes were isolated from littermate control HHD mice and incubated with 20 μg/mL or 1 μg/ml of natural peptide for 2 hours. These cells were then stained with CFSE^hi fluorescence (4.0 μM or […] for 15 minutes) and intravenously co-injected into immunized mice with an equal number of control splenocytes stained with CFSE^lo fluorescence (0.4 μM). Eighteen hours later the specific elimination of target cells was measured by removing spleen and PBMC from challenged animals and measuring CFSE fluorescence by flow cytometry. The relative depletion of the populations corresponding to peptide loaded splenocytes was calculated relative to the control (unloaded) population and expressed as % specific lysis. FIG. 10 (spleen) and 11 (blood) show the in vivo cytotoxicity elicited by the regimens described in FIG. 7.

[6] = tested on: native PSMA288-297 peptide; assay: Cross-reactive immunogenicity of PSMA analogs, IFN-gamma ELISPOT; type: in vivo, HHD transgenic mice; settings: peptide plus pI:C intranodal; FIG. 22
Procedure: Groups of HHD transgenic mice (n=8) were immunized with peptide (natural epitope PSMA288-297, or analogs bearing substitutions at primary or secondary anchor residues) by direct inoculation into the inguinal lymph nodes, with 25 μg in 25 μl of PBS+12.5 μg of pI:C to each lymph node at day 0, 3, 14 and 17.
Mice were sacrificed at 10 days after the last boost, and splenocytes prepared and assessed for IFN-γ production by ELISPOT analysis. […] At 48 hours after incubation, the assay was developed and the frequency of cytokine-producing T cells that recognized native PSMA288-297 peptide was automatically counted. The data is represented in FIG. 22 as the number of spot forming colonies/well (mean of triplicates±SD). […] To the extent that the poor immunogenicity of the native epitope reflects tolerance, the improved activity of these analogs represents tolerance breaking.

LnCap cells = assay: Ex vivo cytotoxicity against PSMA+ A2+ human tumor cells; type: in vivo; settings: splenocytes restimulated ex vivo with native PSMA288-297
Procedure: HHD transgenic mice (n=4) were immunized with PSMA288-297 peptide (25 μg in 25 μl of PBS, plus 12.5 μg of pI:C to each lymph node) at day 0, 3, 14 and 17. One week after the boost, splenocytes were stimulated ex vivo with the native PSMA288-297 peptide and tested against ^51Cr-labeled human tumor cells (PSMA^+ A2^+ LnCap cells, or as negative control, LnCap cells coated with MHC class I-blocking antibody) at various E:T ratios.
HHD transgenic mice (n=4) were immunized with plasmid expressing the PSMA288-297 epitope by direct inoculation into the inguinal lymph nodes with 25 μg in 25 μl of PBS to each lymph node at day 0, 3, 14 and 17. This was followed by two peptide boosts (same amount) at day 28 and 31, with the analog I297V. One week after the boost, splenocytes were stimulated ex vivo with the native PSMA288-297 peptide and tested overnight against ^51Cr-labeled human tumor cells (Lncap, A2^+ PSMA^+; or 624.38 A2^+ PSMA^− or control 624.28 cells A2^− PSMA^−) at various E:T ratios.

[7] = tested on: target cells coated with wild-type peptide; assay: In vivo cytotoxicity against wild-type NY-ESO-1 peptide-coated target cells; parameters: species or system HHD mice; settings: plasmid entrain, peptide amplify; FIGS. 15-16
Procedure: These cells were then stained with CFSE^hi and CFSE^med fluorescence (4.0 μM or 1 μM, respectively, for 15 minutes) and intravenously co-injected into immunized mice with an equal number of control splenocytes stained with CFSE^lo fluorescence (0.4 μM). Eighteen hours later the specific elimination of target cells was measured by removing the spleens and PBMC from challenged animals and measuring CFSE fluorescence by flow cytometry. The relative depletion of the populations corresponding to peptide loaded splenocytes was calculated relative to the control (unloaded) population and expressed as % specific lysis.

splenocytes = assay: Ex vivo IFN-gamma production after re-stimulation with wild-type NY-ESO-1157-165 (ELISA); type: in vivo, mice; settings: 10 μM wild-type peptide, 3 and 6 days; FIG. 17
Text: Supernatants were harvested and the concentration of IFN-γ measured by ELISA.

[8] = tested on: T cells specific for the wild-type NY-ESO-1157-165 epitope; assay: Cross-reactivity and functional avidity of NY-ESO-1 157-165 analogs (IFN-gamma production ex vivo); type: cell-based, HHD transgenic mice; settings: relative to wild-type peptide; FIG. 13
624.38 melanoma cells [9] = assay: Ex vivo cytotoxicity against PRAME+ A2+ human tumor cells; type: in vivo; settings: splenocytes restimulated ex vivo with native PRAME peptide
Procedure: This was followed by two peptide boosts (2.5 μg) at day 28 and 31, with the analog L426Nva L433Nle.

[10] = tested on: native peptide loaded splenocytes; assay: In vivo cytotoxicity against native PRAME peptide-loaded splenocytes (CFSE); parameters: species or system HHD transgenic mice; settings: pCTLR2 prime, peptide boost; FIGS. 30-31
[11] = tested on: PRAME425-433-specific T cells; assay: Tetramer/CD8 co-staining of PRAME425-433-specific T cells; type: in vivo, HHD transgenic mice; settings: versus boost with negative control peptide; FIG. 31
624.38 cells = assay: Ex vivo cytotoxicity against human tumor cells after boost with tyrosinase analogs; type: in vivo; settings: pSEM prime, peptide boost; FIG. 41
Procedure: HHD transgenic mice (n=4/group) were immunized (according to the general protocol in FIG. 40) with plasmid (pSEM) expressing the Tyrosinase369-377 epitope by direct inoculation into the inguinal lymph nodes of 25 μg of plasmid in 25 μl of PBS per lymph node at day 0, 3, 14 and 17. […] One week after the boost, splenocytes were stimulated ex vivo with the native Tyrosinase369-377 peptide and assayed against ^51Cr-labeled human tumor cells (624.38 cells) at various E:T ratios. […] Together with the preceding example, this observation illustrates the usefulness of complementing more stringent assays (in vivo cytotoxicity and tetramer staining) with more sensitive assays (ex vivo cytotoxicity after in vitro stimulation) to outline potentially useful analogs.

HLA-A*0201 on T2 cells = biological target: T2, HLA-A*0201 on T2 cells (human); assay: T2 cells, wild-type/analog half-maximal binding
T2 construct: whole, on cells; Class I MHC on the surface of T2 cells, detected with a fluorescent anti-A2 antibody; beta2-microglobulin is not mentioned for this assay; also called MHC class I (A2 allele)

CC[C@H](C)[C@H](NC(=O)[C@H](Cc1ccc(O)cc1)NC(=O)[C@H](Cc1ccccc1)NC(=O)[C@@H](NC(=O)[C@H](CCCCN)NC(=O)[C@H](CCC(=O)O)NC(=O)[C@H](CO)NC(=O)[C@@H](NC(=O)[C@@H](N)Cc1ccccc1)C(C)C)[C@@H](C)CC)C(=O)O [SSX2 41-49 (K41F, A42V, V49I)]
Relative affinity (1/RA) (HLA-A*0201 [1]): 1.6
Cross-reactivity and fct avidity (native to analogs)* [2]: 0.3
cytotoxicity against human tumor cells expressing natural SSX-2 41-49 epitope (624.38 melanoma cells [3]): increased cytotoxicity

Ala substitution: PRAME425-433 analog with Ala at the PΩ anchor position (SLLQHLIGA; UniProt P78395 425-433, looked up, variant L433A)
ED50 relative to native peptide (HLA-A*0201 [4]): more than 10 fold

FASEKIFYV [SSX2 41-49 (K41F)]
Relative affinity (1/RA) (HLA-A*0201 [1]): 1.5
Cross-reactivity and fct avidity (native to analogs)* [2]: 0.3
in vivo cytotoxicity (% specific lysis), in words [5]: increased activity

GLPSIPVHPI (T cell peptide epitope analog) [PSMA 288-297, reference compound]
binding affinity / binding profile with HLA-A*0201 on T2 cells, in words (HLA-A*0201 [1]; compared with wild-type peptide): generally superior binding characteristics
priming of immune response against native PSMA288-297 (IFN-γ ELISPOT), in words [6]: poorly immunogenic
cytotoxicity against LnCap human tumor cells (LnCap cells): able to lyse human tumor cells

L158V C165V: NY-ESO-1 157-165 analog with L158V and C165V substitutions (SVLMWITQV; UniProt P78358 157-165, looked up, variant L158V C165V)
in vivo cytotoxicity (% specific lysis), in words [7]: effect in the same range with wild-type peptide
IFN-gamma production upon ex vivo re-stimulation with wild-type peptide (splenocytes): increased amounts of IFN-gamma

L158V: NY-ESO-1 157-165 analog with L158V substitution (SVLMWITQC; UniProt P78358 157-165, looked up, variant L158V) [Peptide L158V]
activity in cross-reactivity assay (NY-ESO-1 157-165 specific T cells), in words [8]: partial retention of activity

NY-ESO-1157-166: 10-mer of the wild-type sequence NY-ESO-1 157-166 (SLLMWITQCF; UniProt P78358 157-166, looked up, fragment) [reference compound]
activity in cross-reactivity assay (NY-ESO-1 157-165 specific T cells), in words [8]: no immunological activity

S157F L158V C165V: NY-ESO-1 157-165 analog with S157F, L158V and C165V substitutions (FVLMWITQV; UniProt P78358 157-165, looked up, variant S157F L158V C165V)
IFN-gamma production upon ex vivo re-stimulation with wild-type peptide (splenocytes): increased amounts of IFN-gamma

S157K L158V C165V: NY-ESO-1 157-165 analog with S157K, L158V and C165V substitutions (KVLMWITQV; UniProt P78358 157-165, looked up, variant S157K L158V C165V)
in vivo cytotoxicity (% specific lysis), in words [7]: effect in the same range with wild-type peptide

S157Y L158I C165V: NY-ESO-1 157-165 analog with S157Y, L158I and C165V substitutions (YILMWITQV; UniProt P78358 157-165, looked up, variant S157Y L158I C165V)
activity in cross-reactivity assay (NY-ESO-1 157-165 specific T cells), in words [8]: increased activity relative to the wild-type peptide

SLLMWITQC [Nyeso-1 157-165, reference compound]
in vivo cytotoxicity (% specific lysis), in words [7]: variable cytotoxicity

SLLQHLIGL [PRAME 425-433, reference compound]
cytotoxicity against 624.38 human tumor cells (624.38 melanoma cells [9]): able to lyse human tumor cells

T{Nva}LQHLIG{Nle} (T[Nva]LQHLIG[Nle]) [S425T L426Nva L433Nle]
in vivo cytotoxicity against native epitope, in words [10]: capable of expanding the immunity against the native epitope
expansion of T cells specific against the native epitope (tetramer staining) [11]: significantly higher

YASEKIFYV-OH [SSX2 41-49 (K41Y)]
Relative affinity (1/RA) (HLA-A*0201 [1]): 1.7
Cross-reactivity and fct avidity (native to analogs)* [2]: 3
in vivo cytotoxicity (% specific lysis), in words [5]: increased activity

YMDGTMSQV [Tyrosinase 369-377, reference compound]
cytotoxicity against 624.38 cells (624.38 cells): robust cytotoxicity

{Abu}LPSIPVHPI (XLPSIPVHPI; Abu at position 288; T cell peptide epitope analog) [Peptide G288Abu, PSMA288-297 analog with G288Abu substitution]
priming of immune response against native PSMA288-297 (IFN-γ ELISPOT), in words [6]: slightly higher (but significant) activity

KISEKIFYV [SSX2 41-49 (A42I)]
Relative affinity (1/RA) (HLA-A*0201 on T2 cells): 1.7 1/RA

KMSEKIFYV [SSX2 41-49 (A42M)]
Relative affinity (1/RA) (HLA-A*0201 on T2 cells): 1.7 1/RA
